Source: US20260092300A1, “MINIMUM INHIBITORY CONCENTRATION RECOGNITION METHOD, APPARATUS AND DEVICE, AND STORAGE MEDIUM” (AUTOBIO LABTEC INSTRUMENTS CO., LTD., priority 2022, published 2026)
≈ marks a conversion by molar mass, not a printed value.

What was measured:
Type in all cases: cell-based
[1] = tested on: ATCC25923 Staphylococcus aureus; test: MIC determined by the method (lensless imaging, Siamese neural network image similarity); details: incubation 2 hours to 4 hours at 37±2° C.
Description: (§1) The antimicrobial susceptibility test plate is a commonly used experimental equipment in antimicrobial susceptibility tests, which consists of multiple regularly arranged microwells. In practice, the antimicrobial susceptibility test plate is of different specifications, generally including a 96-well plate and a 128-well plate. In the implementation, the operator first prepares the bacterial suspension of a sample (that is, the to-be-tested bacterial strain); opens an antibiotic-coated antimicrobial susceptibility test plate, of which the microwells are pre-coated with the to-be-tested antibiotic with different gradient concentrations (that is, the preset gradient concentrations), where the concentration gradients of the antibiotic may be designed according to the rules of the clinical laboratory standard institute; adds the bacterial suspension to the microwells via a sample loading well; and places the antimicrobial susceptibility test plate on the imaging platform upon completing the sample loading. The processor controls the imaging platform to perform lensless imaging on the microwells at an initial time instant immediately after the sample is added (that is, the time instant of not completing inhibition) and a time instant immediately after the preset incubation time period (that is, the time instant of completing bacteria inhibition) and saves the data, so as to obtain the testing images and the test control images of the to-be-tested bacterial strain. Alternatively, the processor performs lensless imaging on the microwells and the control microwells at the time instant immediately after the preset incubation time period and saves the data.
(§2) For example, the determination result of the minimum inhibitory concentrations of two commonly used clinical quality control strains (ATCC25922 Escherichia coli and ATCC25923 Staphylococcus aureus) through the method according to the embodiments validates the feasibility of the method. Preparation of the bacterial strain includes: sub-culturing the strain for the second to fourth generations for standby; selecting colonies to prepare a bacterial suspension with a McFarland 0.5 standard; pre-coating antibiotic in the microwells of the antimicrobial susceptibility test plate (the concentration of the antibiotic is prepared according to CLSI standard); mixing the bacterial suspension with agarose at a concentration of 0.6% to 1.0% and a temperature of 37° C. to 40° C. in a dilution ratio of 1:300 to 1:500; adding the mixture sample respectively to the microwells by centrifugation; and then placing the antimicrobial susceptibility test plate in an incubator (37±2° C.) to incubate for 2 hours to 4 hours. Data collection includes: when the incubation is completed, placing the antimicrobial susceptibility test plate on the lensless imaging platform to take the images of the wells (that is, microwells) and recording the images corresponding to different antibiotic concentrations, where the minimum inhibitory concentration (MIC) determined by using the method in the embodiments is obtained based on the images. As shown in Table 1 and Table 2, it can be seen from the MIC results determined through the method and antimicrobial susceptibility results of the clinical gold standard broth microdilution test (BMD) that the MIC results determined through the method according to the embodiment are more accurate and reliable, and the MIC results are determined in 2 hours to 4 hours through the method according to the embodiment, which is more efficient.

[2] = tested on: ATCC25923 Staphylococcus aureus; test: Broth microdilution test (BMD); details: clinical gold standard broth microdilution test
[3] = tested on: ATCC25922 Escherichia coli; test: MIC determined by the method (lensless imaging, Siamese neural network image similarity); details: incubation 2 hours to 4 hours at 37±2° C.
Description: as §1, §2

[4] = tested on: ATCC25922 Escherichia coli; test: Broth microdilution test (BMD); details: clinical gold standard broth microdilution test

Row | Molecule | MIC [1] [µg/mL] | MIC [2] [µg/mL] | The method (MIC) [3] [µg/mL] | BMD (MIC) [4] [µg/mL] | MIC [3] [µg/mL] | MIC [4] [µg/mL]
1 | CC[C@H]1OC(=O)[C@H](C)[C@@H](O[C@H]2C[C@@](C)(OC)[C@@H](O)[C@H](C)O2)[C@H](C)[C@@H](O[C@@H]2O[C@H](C)C[C@H](N(C)C)[C@H]2O)[C@](C)(O)C[C@@H](C)C(=O)[C@H](C)[C@@H](O)[C@]1(C)O [Erythromycin] | 0.5 (≈ 0.681 µM) | 0.25 to 0.5 (≈ 0.341 to 0.681 µM) |  |  |  | 
2 | Gentamycin |  |  | 0.25 | 0.25 to 0.5 |  | 
3 | NCC[C@H](O)C(=O)N[C@@H]1C[C@H](N)[C@@H](O[C@H]2O[C@H](CN)[C@@H](O)[C@H](O)[C@H]2O)[C@H](O)[C@H]1O[C@H]1O[C@H](CO)[C@@H](O)[C@H](N)[C@H]1O [Amikacin] |  |  |  |  | 4 (≈ 6.83 µM) | 1 to 4 (≈ 1.71 to 6.83 µM)
4 | C[C@@H](O)[C@H]1C(=O)N2C(C(=O)O)=C(SCCN=CN)C[C@H]12 [Imipenem] |  |  |  |  | 0.12 (≈ 0.401 µM) | 0.06 to 0.25 (≈ 0.2 to 0.835 µM)
5 | CC1(C)S[C@@H]2[C@H](NC(=O)[C@H](N)c3ccccc3)C(=O)N2[C@H]1C(=O)O [Ampicillin] | 1 (≈ 2.86 µM) | 1 (≈ 2.86 µM) |  |  | 4 (≈ 11.4 µM) | 4 (≈ 11.4 µM)
6 | CO[C@@]1(NC(=O)Cc2cccs2)C(=O)N2C(C(=O)O)=C(COC(N)=O)CS[C@@H]21 [Cefoxitin] | 4 (≈ 9.36 µM) | 1 to 4 (≈ 2.34 to 9.36 µM) |  |  | 1 (≈ 2.34 µM) | 2 to 4 (≈ 4.68 to 9.36 µM)
